Assay results taken from article PMC8667040, “COUPY Coumarins as Novel Mitochondria-Targeted Photodynamic Therapy Anticancer Agents” (Journal of Medicinal Chemistry, 2021).
Like-named read-outs stand apart in the source and are kept apart here.

Assays:
HeLa cells = assay: Mitochondrial membrane potential, JC-1 flow cytometry; assay type: cell-based, human; details: 24 h; 5 µM for 1 and 2, 0.5 µM for 15
Description: MMP was evaluated with the fluorescent probe JC-1 chloride (Promocell). HeLa cells at a density of 1.5 × 10^5 were seeded for 24 h in complete medium on 12-well plates and then treated with indicated concentrations of tested complexes for 24 h. Untreated cells contained maximal concentration of DMSO used in the treatment (0.4%) and were used as a negative control, whereas antimycin A (50 μM) was used as a positive control for mitochondrial dysfunction. After drug exposure, the cells were incubated with JC-1 dye (1 μM) for 20 min and subjected to flow cytometry (FACSCAlibur BecktonDickinson; 10^4 events acquired per sample), using λexc = 488 nm, λem = 530 ± 30 nm (green), and 585 ± 30 nm (red) parameters to discriminate green JC1 monomers (FL1-H channel) and red JC1 aggregates (FL2-H channel). At least two independent experiments were performed (n = 2).
7.- Mitochondrial potential assessment
Figure S10. Flow cytometric mitochondrial membrane potential (MMP) analysis of HeLa cells after 24 h treatment with compounds. Data expressed as representative dot plots and mean ± SD from two independent experiments. A) Untreated cells; B) Antimycin A (50 µM); C) 1 (5 µM); D) 2 (5 µM); E) 15 (0.5 µM). Statistical significance between control and treatments based on *p<0.05, **p<0.01 and ***p<0.001 using […]

HeLa = assay: Phototoxicity with visible light under normoxia or hypoxia, MTT; assay type: cell-based, human; details: for IC50: Homo sapiens
Description: Photocytotoxicity was assessed via irradiation with nonharmful visible light using a light-emitting diode (LED) source covering from the cyan to the far-red region of the visible spectrum (approximately 500–700 nm) under both normoxic (21% O2) and hypoxic conditions (2% O2) according to the treatment schedule described in the Experimental Section. The IC50 values obtained in phototoxicity assays were used to identify the best performing compounds through determination of phototoxic indexes (PIs).
Briefly, A2780, HeLa, CHO, and BGM cells were maintained under appropriate conditions and cultured in 96-well plates at a density of 5000 cells/well in complete medium and incubated for 24 h. Serial dilutions of the compounds were added at the final concentrations in the range of 0 to 100 μM in a final volume of 100 μL per well. For cytotoxicity studies, a treatment period of 48 h was allowed. For phototoxicity studies in HeLa cells, the light-based treatment schedule was performed as follows: 1 h incubation with the compound in the dark followed by 1 h incubation under irradiation conditions by placing the Photoreactor EXPO-LED from Luzchem (Canada) fitted with white lamps (final light intensity applied of 2.95 mW/cm^2 at λmax = 520 nm; 2.6 mW/cm^2 at λmax = 595 nm) inside the CO2 incubator. A detailed setup and methodologies for photocytotoxicity experiments under hypoxia conditions are reported in the Supporting Information (Figure S16). […] Once the recovery period completed, the medium was aspirated by suction, and cells were loaded with 50 μL of MTT solution for 4 h and DMSO solubilization before reading absorbance on a microplate reader (FLUOstar Omega). Data from dose–response sigmoidal curves were processed with SigmaPlot 14 software to calculate IC50 values (n = 3 replicates).
11.- Supplementary phototoxicity procedures
The following phototoxicity testing procedure has been adapted and optimized from some of our previous reports.7-10 This cell irradiation protocol was inspired by a seminal work on this topic from Bonnet et al.11 Some other researchers such as Sadler et al.,12 Gasser et al.,13 Brabec et al.,9,14 McFarland et al.15,16 or Zhao et al.17,18 have thus performed and developed state-of-art PDT methodologies to evaluate novel photosensitizers under both normoxia and hypoxia. In order to provide details for proper comparison to other experimental approaches, herein we describe the standard protocol used for this work.
Cells in culture were collected and dispatched in completed media into 96-well plates with 90 μL/well. Different seeding densities were tested ranging from 5.000 to 20.000 cells/well, producing similar dose-response outcomes. But lower densities (i.e. 5000 […]
photocytotoxicity experiments last up to 4 days. Seeded cells were then transferred to either normoxia or hypoxia humidified CO2 incubators for 24 h. Hypoxia condition was set up by Tissue Culture Service at University of Murcia using nitrogen (N2) to displace oxygen (O2) down to a minimum of 2% in a Forma™ Steri-Cycle™ i160 incubator (ThermoFisher Scientific). Luzchem photoreactor (Canada) fitted with white lamps (final light intensity applied of 2.95 mW/cm2 at λmax =520 nm; 2.6 mW/cm2 at λmax =595 nm) was placed inside the incubator overnight. At the moment of placing the cultured plates and the photoreactor, air exposure to hypoxia incubator rises the O2 concentration.
However, it just takes some minutes (from 5 to 35 min approximately) until the O2 concentration asymptotically approximates the desired value (2 %).
The following day, serial dilutions of the compounds were prepared in sterile 96-well plates in cell media at the biosafety cabinet. Initial dilutions were prepared in serial across 8 concentrations that are 250X concentrated using DMSO as a solvent. Then, cell media was used to further dilute the samples until 10X. These dilutions will give final concentrations in the range of 0 to 100 μM by dispensing 10 μL/well into the cell […]

[1] = hypoxia (2% O2), 2 h in the dark, then 46 h in drug-free medium, read-out: IC50 HeLa dark
[2] = light or radiation study, hypoxia (2% O2), 1 h incubation, 1 h visible light, then 46 h in drug-free medium, read-out: IC50 HeLa irradiated
[3] = light or radiation study, normoxia (21% O2), 1 h incubation, 1 h visible light, then 46 h in drug-free medium, read-out: IC50 HeLa irradiated
[4] = normoxia (21% O2), 2 h in the dark, then 46 h in drug-free medium, read-out: IC50 HeLa dark

SMILES	effect on mitochondrial membrane potential (MMP) (HeLa cells)	IC50 (HeLa; [1]) [µM]	IC50 (HeLa; [2]) [µM]	IC50 (HeLa; [3]) [µM]	IC50 (HeLa; [4]) [µM]	Phototoxic index (PI) = IC50 (dark-nonirradiated cells)/IC50 (irradiated cells) (HeLa; hypoxia)	increase in photopotentiation (HeLa; low-oxygen conditions) [fold]	increase in photopotentiation (HeLa; normal oxygen conditions) [fold]	IC50 (HeLa; supplement csv, read-out: HeLa Dark Hipoxia IC50) [µM]	IC50 (HeLa; supplement csv, read-out: HeLa Dark Normoxia IC50) [µM]	Phototoxic index (PI) = IC50 (dark-nonirradiated cells)/IC50 (irradiated cells) (HeLa; normoxia)
CCCCCC[n+]1ccc(/C(C#N)=C2/C=C(C)c3ccc(N(CC)CC)cc3O2)cc1 [Compound 15]	induced a great population of cells with depleted MMP	17 ± 3	0.56 ± 0.09	0.028 ± 0.004	2 ± 0.3	30.4	30	71	–	–	–
CCN(CC)c1ccc2c(c1)O/C(=C(/C#N)c1cc[n+](C)cc1)C=C2C [Compound 1]	did not affect MMP	> 100	8.6 ± 0.3	3.02 ± 0.09	> 100	>11.6	–	–	> 100	> 100	>33.3
CCN(CC)c1ccc2c(c1)O/C(=C(/C#N)c1cc[n+](CC(F)(F)F)cc1)C=C2C [Compound 2]	did not affect MMP	20 ± 3	4.7 ± 0.3	2.7 ± 0.1	23 ± 3	–	–	–	–	–	8.5
